Assay results as given in patent publication US6520981B1, “Significance of dosimetry in photodynamic therapy of injured arteries” (The General Hospital Corporation, priority 1999, dated 2003).
Values joined by “and” are separate entries in the source; they are usually repeats but may differ in a detail not shown here. Identical values can stand only once. “Also recorded” adds a separate entry of the source. Like-named read-outs stand apart in the source and are kept apart here. Marks after values point to notes of the source that are not given here.

Key:
[1] = system: intimal hyperplasia; conditions: for as long as 6 months after PDT; cited from earlier work
[2] = 15 minutes following delivery of BPD at 400 mm Hg for two minutes; previous studies; cited from earlier work
[3] = system: basic fibroblast growth factor (bFGF); assay: Immunohistochemistry for bFGF in arteries after BPD-PDT; type: in vivo, rat; conditions: 100 J/cm^2
Source text: Harvest. […] The carotid artery was flushed with saline.
Immunohistochemistry. Immunohistochemistry for basic fibroblast growth factor (bFGF) was undertaken to verify possible differential, dose-dependent effects on this growth factor which resides in the vascular wall and is known to play an important role in the early development of IH in rats. Monoclonal antibody to bFGF (Zymogenetics, Seattle, Wash.) was used to verify the presence of bFGF in the specimens using the two-layer indirect immunoperoxidase technique previously described. Briefly, the primary antibody (1:1000) was labeled by biotinylated horse anti-mouse immunoglobulin (Vector Laboratories, Burlingame, Calif.) and counterstained with nuclear fast red (Sigma Chemical Co., St. Louis, Mo.). Normal arteries were used as positive control, and arteries stained with a nonspecific primary antibody were used as negative controls to exclude nonspecific binding by the primary or secondary antibody.

[4] = Observation of BPD-treated animals at harvest; type: in vivo, rat; conditions: rats after local delivery of BPD
[5] = system: balloon-injured rat common carotid artery (intimal hyperplasia); conditions: for Intimal Area: 690 nm
Method: Male Sprague Dawley rats (Charles River Breeding Laboratories, Wilmington, Mass.), weighing 350-450 g, were anesthetized with intramuscular Ketamine (75 mg/kg), Xylazine (5 mg/kg), and Atropine (40 μg/kg). A midline neck incision was performed and the left carotid artery was exposed. After clamping the common carotid and the internal carotid artery, a 2 F (French Fogarty embolectomy catheter (Baxter Health Care Corporation, LIS Division, Irvine, Calif.) was introduced into the common carotid artery via the external carotid artery. The common carotid artery was subsequently injured by inflating the balloon with 0.2 ml air and gently passing and rotating the catheter three times.
After balloon-injury, a 22 gauge polyethylene catheter was advanced through the external carotid arteriotomy into the distal portion of the common carotid artery and secured with a suture. The catheter was connected via three-way stopcock to a Statham transducer for synchronous pressure monitoring with a digital pressure manometer (HP 78205C, Hewlett Packard, Palo Alto, Calif.). The second generation photosensitizer benzoporphyrin-derivative monoacidic ring (BPD-MA Verteporfine®, Quadra Logic Technologies Inc., Vancouver, BC, Canada), provided as a liposomal preparation, was reconstituted in distilled water (2 mg/ml) and diluted in physiologic saline to a final concentration of 25 μg/ml. Once the arterial segment was isolated with microclamps under low ambient light, BPD was delivered at a pressure of 400 mm Hg for two minutes. […] Following aspiration of BPD from the arterial lumen, the artery was flushed with saline, the catheter was removed, and blood flow was restored to the internal carotid artery.
Photodynamic Therapy. Fifteen minutes following delivery of the PS to the artery wall, the common carotid artery was externally irradiated as previously described. Briefly, an argon-pumped dye laser (Coherent Innova I 100 and Coherent CR 599, Coherent, Palo Alto, Calif.) was tuned to 690 nm light at an irradiance of 100 mW/cm^2, coupled to a 600 μm optical fiber, and using a 5-mm focal length lens magnified to obtain a uniform 2-cm spot. The targeted artery was submerged in physiologic saline, placed on a right-angled reflective mirror, and optically isolated with black, light-impervious tape.
Experimental groups. The arteries were assigned to four different experimental groups: group 1 (n=6) and 2 (n=6) consisted of arteries which were pressurized with 0.5 μg/ml BPD and irradiated at a fluence of 50 and 100 J/cm^2 respectively. Group 3 (n=15) and 4 (n=4) were pressurized with 25 μg/ml BPD and irradiated at 100 or 200 J/cm^2 respectively.
Harvest. The animals were sacrificed 24 hours and 2 weeks after PDT. The carotid artery was flushed with saline. They were either in situ perfusion-fixed at 80 mm Hg with 10% buffered formalin for light microscopy or rinsed with saline, embedded in Tissue tek O.C.T. compound® (Miles Inc. Elkhart, IN) and stored at −70° C. for immunohistochemistry.
Histology. For each animal, the harvested artery was processed into three segments: proximal, mid, and distal. Multiple five-μm thick cross-sections were prepared from each specimen of the artery, and a representative from each segment was analyzed. All paraffin-embedded specimens were stained with hematoxylin and eosin. Arterial diameters, as delineated by the length of the internal elastic lamina (IEL circumference=πd), as well as intimal—and medial areas were measured using morphometric analysis with a camera lucida digitizing measurement system as previously described (Sigma Scan, Jandel Scientific, San Rafael, Calif.).

[6] = system: versican mRNA; assay: Digoxigenin in situ hybridization, versican; type: in vivo, rat; conditions: group PDT: MB 250 μg/ml, 660 nm, 100 J/cm^2; 2 weeks
Source text: (§1) Digoxigenin in situ hybridization: Groups for in situ hybridization included PDT, BI, and the uninjured contralateral artery (n=3). […] Complementary DNAs (cDNAs) for type I procollagen and versican core protein were obtained as PCR fragments with each gene specific primers in which reverse primers contain T7 RNA polymerase recognition sequence at their 5′ end. Primer sequences were as follows. […] Digoxigenin-labeled antisense RNA probes were synthesized using a RNA labeling kit (Boehringer, Mannheim, Germany) according to the manufacturers' instruction and the in situ hybridization protocol used with modifications as previously described. Arterial sections were deparafinized in xylene and rehydrated through graded ethanol solutions, washed, and treated with 5 μg/ml proteinase K (Boehringer) for 30 min at 37° C. […] The hybridized probes were detected using an alkaline phosphatase conjugated anti-digoxigenin monoclonal antibody (Boehringer), and the colored product was visualized using Nitro Blue tetrazolium (Boehringer) and 5-bromo-4-chlor-indonyl-phosphate (Boehringer) as substrates. […] For statistical analysis, the median data point of every specimen was assessed and used to compare control versus PDT procollagen type I and veriscan gene expression.
(§2) Statistical Evaluation: All values are expressed as a mean ± SD.

[7] = system: procollagen type I mRNA; assay: Digoxigenin in situ hybridization, procollagen type I; type: in vivo, rat; conditions: group PDT: MB 250 μg/ml, 660 nm, 100 J/cm^2; 2 weeks
Source text: as §1, §2

[8] = system: balloon-injured rat common carotid artery (intimal hyperplasia); assay: PDT with locally delivered methylene blue in balloon-injured rat carotid artery: light microscopy and histomorphometry; type: in vivo; conditions: 2 weeks
Method: Control animals included BI along and MB after BI alone. Arteries were analyzed after 2 weeks with morphometric evaluation (per group: n=6), and in situ hybridization for versican and pro-collagen type 1 gene expression (digitized image pixel analyses, n=9).
Common carotid artery balloon injury was performed using a 2-French Fogarty embolectomy catheter (Baxter Health Care Corporation, Edwards Division, Irvine, Calif.). […] In brief, the balloon was introduced into the common carotid artery and inflated with 0.65 mL of air. […] The catheter was connected via a three-way stopcock to a Stratham transducer for synchronous pressure monitoring (HP 78205C, Hewlett Packard, Mass.). […] Under low ambient light, the drug was injected into the common carotid artery with 180 mm HG for 2 minutes. […] The external carotid artery was ligated, and the blood flow was restored.
The animals were randomly assigned to the following 3 groups: Group PDT (n=6): balloon injury followed by application of photosensitizer and laser irradiation; Group PS (n=6): balloon injury followed by the photosensitizer MB application alone; Group BI (n=6): no treatment other than balloon-injury (BI) to the carotid artery.
Photodynamic Therapy: Five minutes after local delivery of MB, the common carotid artery was externally irradiated with 660 nm laser light, emitted by a diode laser (Alto-Surgeon SRG-3, Polaroid, Cambridge, Mass.) to deliver a total fluence of 100 J/cm^2 at an irradiance of 100 mW/cm^2. The diode laser was coupled to a 600-μm optical fiber through a microlens to obtain a uniform 1-cm spot. The targeted artery was submerged in 0.9% saline and placed on a right-angled reflective mirror to achieve uniform irradiation, as previously described. The irradiated vessel segment was marked with periadventitial India ink.
Harvest: Animals were sacrificed 14 days after surgery by an overdose of pentobarbital. Following sacrifice, the iliac artery was cannulated and the arterial system was flushed with saline and in situ perfusion-fixed at 150 mm Hg with 10% buffered formalin. The balloon-injured vessel segments and the contralateral carotid artery were excised and placed in fresh 10% buffered formalin. After embedding in paraffin, multiple 4 μm thick cross sections were obtained from the proximal, mid, and distal vessel segments.
Vessel Histomorphometry: The histologic analyses of the arteries stained with hematoxylin and eosin consisted of both a descriptive and quantitative morphometric evaluation. The morphometry of the arteries was measured using a digitizing measurement system (Color CCB Camera Model 2222-1010, COHU Inc., San Diego, Calif.) and analyzed using the Scion Image software (Scion Corporation, Frederick, MY). Intimal area, medial area, and vessel diameter, as delineated by the external elastic lamina, were measured and calculated as previously described. In addition, adventitial cells were counted manually and are expressed as the number of cells per high power microscopic field (×400). Because the area of the adventitia varies within the different specimens, high power fields were used for all quantitative measurements of adventitial cell numbers and gene expression in the in situ hybridization experiments.

[9] = group 1: 0.5 μg/ml BPD, 50 J/cm^2, 2 weeks
[10] = group 2: 0.5 μg/ml BPD, 100 J/cm^2, 2 weeks
[11] = group 3: 25 μg/ml BPD, 100 J/cm^2, 2 weeks
[12] = group 4: 25 μg/ml BPD, 200 J/cm^2
[13] = group PDT: MB 250 μg/ml, 660 nm, 100 J/cm^2
[14] = group PS: MB alone without irradiation

chloraluminum sulfonated phthalocyanin
Inhibition of IH after PDT [1]: inhibition of IH without arterial degeneration

benzoporphyrin-derivative monoacid ring [BPD]
Photosensitizer fluorescence in the arterial wall [2]: detected through the entire arterial wall
bFGF staining of the vascular wall ([3]; group 2 / stage II: 0.5 μg/ml BPD, 24 hours after PDT): evidence of bFGF in all layers of the vascular wall; also recorded: bFGF could still be detected in all layers of the vascular wall; also recorded: positive staining for bFGF in all layers of the vascular wall; also recorded: avid brown staining in all layers of the vascular wall
bFGF staining of the vascular wall ([3]; group 3 / stage III: 25 μg/ml BPD, two weeks after PDT): evidence for bFGF in the flat cells, presumably endothelial cells, at the luminal surface; also recorded: positive bFGF staining only of endothelial cells in the intima and fibroblasts in the adventitia
Signs of systemic phototoxicity [4]: no signs of systemic phototoxicity
Intimal hyperplasia, histology ([5]; group 1 / stage I: 0.5 μg/ml BPD, 50 J/cm^2, 2 weeks): significant IH
Diameter [5, 9]: 0.93 ± 0.02 mm
Medial Area [5, 9]: 0.18 ± 0.01 mm^2
Intimal Area [5, 9]: 0.18±0.03 mm^2
Diameter [5, 10]: 0.95 ± 0.06 mm
Medial Area [5, 10]: 0.18 ± 0.05 mm^2
Intimal Area [5, 10]: 0.14±0.03 mm^2
Diameter [5, 11]: 0.82 ± 0.04 mm
Medial Area [5, 11]: 0.10 ± 0.02† mm^2
Intimal Area [5, 11]: 0.01 ± 0.01*‡ mm^2
Diameter [5, 12]: 0.91 ± 0.03 mm
Medial Area [5, 12]: 0.17 ± 0.01 mm^2

CN(C)c1ccc2nc3ccc(=[N+](C)C)cc-3sc2c1 [MB, methylene blue]
Artery thrombosis (MB study, at harvest (14 days)): No artery thrombosis
Signs of toxicity (rat, in vivo): no signs of toxicity
Versican mRNA in adventitia, % of positive pixels per high power field [6]: 1.13%±0.39% and 1.11±0.37%
Pro-collagen type I mRNA in adventitia, % of positive pixels per high power field [7]: 4.13%±1.25%
Diameter [8, 13]: 0.95±0.04 mm
Histology of arteries [8, 13]: without evidence of microthrombi, inflammation, or intimal thickening; also recorded: no IH was seen
Medial Area [8, 13]: 0.063±0.004 mm^2
Number of adventitial cells per high power field ([8]; group PDT: MB 250 μg/ml, 660 nm, 100 J/cm^2, ×400): 39±9.4
IH area ([8]; group PDT: balloon injury, MB 250 μg/ml locally, 660 nm, 100 J/cm^2): 0±0 mm^2
Histology of arteries [8, 14]: no MB-induced modulation of the vascular injury healing response; also recorded: IH formation was demonstrated
Medial Area [8, 14]: 0.085±0.005 mm^2
IH area ([8]; group PS: balloon injury, MB alone without irradiation): 0.183±0.05 mm^2
